Usually IC50 stands for the point on the concentration scale where inhibition reaches its midpoint.

This experiment addresses KRasG12C (M1-K169, biotinylated on the N-terminus) (Homo sapiens (Human), UniProt P01116, G12C). The experiment is described as follows: Covalent competition assay: scintillation proximity assay (SPA) quantifying covalent modification of KRASG12C. The conditions noted are these: competition with radiolabeled covalent probe (Compound B/Compound A), 2 hours incubation, 10 nM KRasG12C. Type of experiment: binding. In outline:
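Test compounds compete with a radiolabeled covalent probe for modification of N-terminally biotinylated KRasG12C(M1-K169):GDP, final 10 nM protein, 25 nM radio-ligand, 475 nM unlabelled ligand, 2 h with agitation in 20 mM Tris-HCl pH 7.5, 150 mM NaCl, 0.1 mM MgCl2, 0.01% Tween-20.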
Regarding `C=CC(=O)N1CC2(CC(n3nc(N4CC[C@@H](CN5CC6(CCS(=O)(=O)C6)C5)CC4(C)C)c(-c4c(Cl)c(Cl)cc5[nH]ncc45)c3C)C2)C1` (single isomer, unassigned) [Example 254a], the IC50 is 2600 nM.
As to `C=CC(=O)N1CC2(CC(n3nc(N4CC[C@@H](CN5CC6(CCS(=O)(=O)C6)C5)CC4(C)C)c(-c4c(Cl)c(Cl)cc5[nH]ncc45)c3C)C2)C1` (single isomer, unassigned) [Example 254b], the IC50 worked out at 8 nM.
For `C=CC(=O)N1CC2(CC(n3nc(N4CC[C@@H](CN5CCN(C6COC6)CC5)CC4(C)C)c(-c4c(Cl)ccc5[nH]ncc45)c3C)C2)C1` (single isomer, unassigned) [Example 255a], the IC50 was determined as 3300 nM.
In the case of `C=CC(=O)N1CC2(CC(n3nc(N4CC[C@@H](CN5CCN(C6COC6)CC5)CC4(C)C)c(-c4c(Cl)ccc5[nH]ncc45)c3C)C2)C1` (single isomer, unassigned) [Example 255b], the IC50 came out at 84 nM.
For `C=CC(=O)N1CC2(CC(n3nc(N4CC[C@@H](CN5CCN(CCOC)C(=O)C5)CC4(C)C)c(-c4c(Cl)c(Cl)cc5[nH]ncc45)c3C)C2)C1` (single isomer, unassigned) [Example 256a] the value was 1300 nM; for `C=CC(=O)N1CC2(CC(n3nc(N4CC[C@@H](CN5CCN(CCOC)C(=O)C5)CC4(C)C)c(-c4c(Cl)c(Cl)cc5[nH]ncc45)c3C)C2)C1` (single isomer, unassigned) [Example 256b], 10 nM.
Consider `C=CC(=O)N1CC2(CC(n3nc(N4CC[C@@H](CN5CC6CC6(O)C5)CC4(C)C)c(-c4c(Cl)c(Cl)cc5[nH]ncc45)c3C)C2)C1` (single isomer, unassigned) [Example 257b], for which the IC50 was 12 nM.
Turning to `C=CC(=O)N1CC2(CC(n3nc(N4CC[C@@H](CN5CC6CC6(O)C5)CC4(C)C)c(-c4c(Cl)c(Cl)cc5[nH]ncc45)c3C)C2)C1` (single isomer, unassigned) [Example 258b], the IC50 was 22 nM.
Next, `C=CC(=O)N1CC2(CC(n3nc(N4CC[C@@H](CN5CC6OCCN(C)C6C5)CC4(C)C)c(-c4c(Cl)c(Cl)cc5[nH]ncc45)c3C)C2)C1` (single isomer, unassigned) [Example 259a, 1-(6-(4-(5,6-dichloro-1H-indazol-4-yl)-3-((R)-2,2-dimethyl-4-(((4aR*,7aS*)-4-methylhexahydropyrrolo[3,4-b][1,4]oxazin-6(2H)-yl)methyl)piperidin-1-yl)-5-methyl-1H-pyrazol-1-yl)-2-azaspiro[3.3]heptan-2-yl)prop-2-en-1-one]: 779 nM; `C=CC(=O)N1CC2(CC(n3nc(N4CC[C@@H](CN5CC6OCCN(C)C6C5)CC4(C)C)c(-c4c(Cl)c(Cl)cc5[nH]ncc45)c3C)C2)C1` (single isomer, unassigned) [Example 259b, 1-(6-(4-(5,6-dichloro-1H-indazol-4-yl)-3-((R)-2,2-dimethyl-4-(((4aR*,7aS*)-4-methylhexahydropyrrolo[3,4-b][1,4]oxazin-6(2H)-yl)methyl)piperidin-1-yl)-5-methyl-1H-pyrazol-1-yl)-2-azaspiro[3.3]heptan-2-yl)prop-2-en-1-one]: 10 nM.
`C=CC(=O)N1CC2(CC(n3nc(N4CC[C@@H](CN5CC6OCCN(C)C6C5)CC4(C)C)c(-c4c(Cl)c(Cl)cc5[nH]ncc45)c3C)C2)C1` (single isomer, unassigned) [Example 260a, 1-(6-(4-(5,6-dichloro-1H-indazol-4-yl)-3-((R)-2,2-dimethyl-4-(((4aR*,7aS*)-4-methylhexahydropyrrolo[3,4-b][1,4]oxazin-6(2H)-yl)methyl)piperidin-1-yl)-5-methyl-1H-pyrazol-1-yl)-2-azaspiro[3.3]heptan-2-yl)prop-2-en-1-one]: the IC50 was over 5000 nM.
`C=CC(=O)N1CC2(CC(n3nc(N4CC[C@@H](CN5CC6OCCN(C)C6C5)CC4(C)C)c(-c4c(Cl)c(Cl)cc5[nH]ncc45)c3C)C2)C1` (single isomer, unassigned) [Example 260b, 1-(6-(4-(5,6-dichloro-1H-indazol-4-yl)-3-((R)-2,2-dimethyl-4-(((4aR*,7aS*)-4-methylhexahydropyrrolo[3,4-b][1,4]oxazin-6(2H)-yl)methyl)piperidin-1-yl)-5-methyl-1H-pyrazol-1-yl)-2-azaspiro[3.3]heptan-2-yl)prop-2-en-1-one]: the IC50 was 9 nM.
With `C=CC(=O)N1CC2(CC(n3nc(N4CC[C@@H](CN5CCCC6CN(C)C(=O)C65)CC4(C)C)c(-c4c(Cl)c(Cl)cc5[nH]ncc45)c3C)C2)C1` (single isomer, unassigned) [Example 261a, (4aR*,7aR*)-1-(((R)-1-(1-(2-acryloyl-2-azaspiro[3.3]heptan-6-yl)-4-(5,6-dichloro-1H-indazol-4-yl)-5-methyl-1H-pyrazol-3-yl)-2,2-dimethylpiperidin-4-yl)methyl)-6-methyloctahydro-7H-pyrrolo[3,4-b]pyridin-7-one], the IC50 was over 5000 nM.
Consider `C=CC(=O)N1CC2(CC(n3nc(N4CC[C@@H](CN5CCCC6CN(C)C(=O)C65)CC4(C)C)c(-c4c(Cl)c(Cl)cc5[nH]ncc45)c3C)C2)C1` (single isomer, unassigned) [Example 261b, (4aR*,7aR*)-1-(((R)-1-(1-(2-acryloyl-2-azaspiro[3.3]heptan-6-yl)-4-(5,6-dichloro-1H-indazol-4-yl)-5-methyl-1H-pyrazol-3-yl)-2,2-dimethylpiperidin-4-yl)methyl)-6-methyloctahydro-7H-pyrrolo[3,4-b]pyridin-7-one], for which the IC50 is 15 nM.
For `C=CC(=O)N1CC2(CC(n3nc(N4CC[C@@H](CN5CCCC6CN(C)C(=O)C65)CC4(C)C)c(-c4c(Cl)c(Cl)cc5[nH]ncc45)c3C)C2)C1` (single isomer, unassigned) [Example 262a, (4aR*,7aR*)-1-(((R)-1-(1-(2-acryloyl-2-azaspiro[3.3]heptan-6-yl)-4-(5,6-dichloro-1H-indazol-4-yl)-5-methyl-1H-pyrazol-3-yl)-2,2-dimethylpiperidin-4-yl)methyl)-6-methyloctahydro-7H-pyrrolo[3,4-b]pyridin-7-one] the value was over 5000 nM.
On to `C=CC(=O)N1CC2(CC(n3nc(N4CC[C@@H](CN5CCCC6CN(C)C(=O)C65)CC4(C)C)c(-c4c(Cl)c(Cl)cc5[nH]ncc45)c3C)C2)C1` (single isomer, unassigned) [Example 262b, (4aR*,7aR*)-1-(((R)-1-(1-(2-acryloyl-2-azaspiro[3.3]heptan-6-yl)-4-(5,6-dichloro-1H-indazol-4-yl)-5-methyl-1H-pyrazol-3-yl)-2,2-dimethylpiperidin-4-yl)methyl)-6-methyloctahydro-7H-pyrrolo[3,4-b]pyridin-7-one], for which the IC50 worked out at 7 nM.
Next, `C=CC(=O)N1CC2(CC(n3nc(N4CC[C@@H](CN5CCN6C(=O)N(C)CC6C5)CC4(C)C)c(-c4c(Cl)c(Cl)cc5[nH]ncc45)c3C)C2)C1` (single isomer, unassigned) [Example 263a]: over 5000 nM.
For `C=CC(=O)N1CC2(CC(n3nc(N4CC[C@@H](CN5CCN6C(=O)N(C)CC6C5)CC4(C)C)c(-c4c(Cl)c(Cl)cc5[nH]ncc45)c3C)C2)C1` (single isomer, unassigned) [Example 263b], the IC50 came to 8 nM.
For the compound `C=CC(=O)N1CC2(CC(n3nc(N4CC[C@@H](CN5CCN6C(=O)N(C)CC6C5)CC4(C)C)c(-c4c(Cl)c(Cl)cc5[nH]ncc45)c3C)C2)C1` (single isomer, unassigned) [Example 264a], the half-maximal inhibitory concentration (IC50) came out at 351 nM.

The record behind these values is patent US20240317721A1, “PYRAZOLYL DERIVATIVES AS INHIBITORS OF THE KRAS MUTANT PROTEIN” (NOVARTIS AG, priority 2021, published 2024).
